By DC50 is commonly meant the midpoint of the concentration-degradation curve.

For eleven compounds, DC50 results are on record in patent US20250032625A1, “HETEROBIFUNCTIONAL MOLECULES AS TEAD INHIBITORS” (Merck Patent GmbH, priority 2021, published 2025).

Read-outs that look alike come from different tables or passages of the source. A value given as a limit tells only on which side of the number the result lay.

In one test the target is TEAD1 in SK-HEP1 cells (Homo sapiens (Human), UniProt P28347). Nature of the test: TEAD degradation in SK-HEP1 cell line (immunofluorescence). Type of test: cell-based. As for the experimental part:
(§1) Degradation of TEAD isoform TEAD1 by exemplary compounds which has been determined at different time points in two different cell lines, SK-HEP1 and NCI-H226: For the assay, SK-HEP1 (ATCC HTB-52) and NCI-H226 (ATCC CRL-5826) cells were treated in duplicates with the test compounds in a 10-point dose, 1:3 dilution steps, with the top concentration starting at 30 uM (final concentration in assay). After either 16 or 24 hour incubation at 37° C., 95% rH, and 5% CO2, the cells were fixed with 4% PFA and TEAD1 levels were probed using immunofluorescence. The primary antibody used was Anti-TEF1 (BD, 610293) and the secondary antibody used was Alexa Fluor® 488 Goat Anti-Mouse IgG (H+L) (Molecular Probes, A-11001). Finally, the cell nuclei were co-stained by Hoechst 33258 (Invitrogen, H-3569) and imaged using a high content imager. The amount of TEAD degradation was determined by quantifying the fluorescence intensity levels of Anti-TEF1 in each individual cell per well. DC50 was calculated using curve fitting software Genedata Screener. Cell media: The SK-HEP1 cells were cultured in the following media: MEM, +10% FCS, +1× GlutaMAX, +100 μM NEAA, +10 mM HEPES, +0.5% Pen/Strep. The NCI-H226 cells were cultured in the following media: RPMI 1640, +10% FBS, +1× GlutaMAX, +10 mM HEPES, +0.5% Pen/Strep.

Another test deals with TEAD1 in NCI-H226 cells (Homo sapiens (Human), UniProt P28347). Nature of the test: TEAD degradation in NCI-H226 cell line (immunofluorescence). In kind it is cell-based. How it is done: as §1
The mark [1] stands for this setting: 24 h incubation, read-out: DC50 SK-HEP1 24 h.
Setting [2] is: 24 hours, ranges, read-out: DC50 SK-HEP1.
The mark [3] stands for this setting: 24 h incubation, read-out: DC50 NCI-H226 24 h.
Setting [4] is: 24 hours, ranges, read-out: DC50 NCI-H226.

Sequence of TEAD1 in NCI-H226 cells (P28347 whole entry): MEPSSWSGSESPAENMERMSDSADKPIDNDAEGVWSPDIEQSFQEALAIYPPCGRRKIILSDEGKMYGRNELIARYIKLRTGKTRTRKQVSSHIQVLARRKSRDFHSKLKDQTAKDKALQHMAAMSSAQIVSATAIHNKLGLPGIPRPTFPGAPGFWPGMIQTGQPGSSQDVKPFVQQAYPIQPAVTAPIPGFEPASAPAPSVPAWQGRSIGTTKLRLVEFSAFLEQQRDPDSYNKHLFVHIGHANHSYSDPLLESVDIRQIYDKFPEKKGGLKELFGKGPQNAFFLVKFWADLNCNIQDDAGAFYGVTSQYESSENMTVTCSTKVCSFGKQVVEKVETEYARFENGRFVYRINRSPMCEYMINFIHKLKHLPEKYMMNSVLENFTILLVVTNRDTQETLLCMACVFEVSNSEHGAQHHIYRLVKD
Sequence of TEAD1 in SK-HEP1 cells (P28347 whole entry, canonical isoform): as the sequence (P28347 whole entry) above

For `Cc1ncsc1-c1ccc([C@H](C)NC(=O)[C@@H]2C[C@@H](O)CN2C(=O)[C@@H](NC(=O)CCCCCC(=O)NCCOCCOCCNC(=O)c2ccc3c(c2)c2cn(C)nc2n3-c2ccc(C(F)(F)F)cc2)C(C)(C)C)cc1` [Compound 24, N′-[(2S)-1-[(2S,4R)-4-hydroxy-2-{[(1S)-1-[4-(4-methyl-1,3-thiazol-5-yl)phenyl]ethyl]carbamoyl}pyrrolidin-1-yl]-3,3-dimethyl-1-oxobutan-2-yl]-N-(2-{2-[2-({2-methyl-8-[4-(trifluoromethyl)phenyl]-2H,8H-pyrazolo[3,4-b]indol-5-yl}formamido)ethoxy]ethoxy}ethyl) heptanediamide], the DC50 at TEAD1 in SK-HEP1 cells (16 h incubation, read-out: DC50 SK-HEP1 16 h) is 700 nM; at TEAD1 in SK-HEP1 cells (setting [1]), 700 nM; on TEAD1 in SK-HEP1 cells (setting [2]), 100 to 1000 nM; on TEAD1 in NCI-H226 cells (16 h incubation, read-out: DC50 NCI-H226 16 h), 1000 nM; on TEAD1 in NCI-H226 cells (setting [3]) it was 1000 nM; on TEAD1 in NCI-H226 cells (setting [4]), 100 to 1000 nM.
In the case of `Cn1cc2c3cc(C(=O)NCCOCCOCCOCCOCCNc4cccc5c4CN(C4CCC(=O)NC4=O)C5=O)ccc3n(-c3ccc(C(F)(F)F)cc3)c2n1` (stereo not drawn) [Compound 43, N-(14-{[2-(2,6-dioxopiperidin-3-yl)-1-oxo-2,3-dihydro-1H-isoindol-4-yl]amino}-3,6,9,12-tetraoxatetradecan-1-yl)-2-methyl-8-[4-(trifluoromethyl)phenyl]-2H,8H-pyrazolo[3,4-b]indole-5-carboxamide], the DC50 lay within 9000 to 30000 nM at TEAD1 in SK-HEP1 cells (setting [2]) and 100 to 1000 nM at TEAD1 in NCI-H226 cells (setting [4]).
For `Cc1ncsc1-c1ccc(CNC(=O)[C@@H]2C[C@@H](O)CN2C(=O)[C@@H](NC(=O)COCCOCCOCCOCCOCCOCCNC(=O)c2ccc3c(c2)c2cn(C)nc2n3-c2ccc(C(F)(F)F)cc2)C(C)(C)C)cc1` [Compound 32, (2S,4R)-1-[(2S)-3,3-dimethyl-2-[20-({2-methyl-8-[4-(trifluoromethyl)phenyl]-2H,8H-pyrazolo[3,4-b]indol-5-yl}formamido)-3,6,9,12,15,18-hexaoxaicosanamido]butanoyl]-4-hydroxy-N-{[4-(4-methyl-1,3-thiazol-5-yl)phenyl]methyl}pyrrolidine-2-carboxamide], the figures for the DC50 at TEAD1 in SK-HEP1 cells (setting [1]), at TEAD1 in SK-HEP1 cells (setting [2]) and at TEAD1 in NCI-H226 cells (setting [4]) were 1100 nM, 1000 to 3000 nM and 1000 to 3000 nM, respectively.
Consider `Cc1ncsc1-c1ccc(CNC(=O)[C@@H]2C[C@@H](O)CN2C(=O)[C@@H](NC(=O)CCCCCC(=O)NCCOCCOCCNC(=O)c2ccc3c(c2)c2nn(C)nc2n3-c2ccc(C(F)(F)F)cn2)C(C)(C)C)cc1` [Compound 55, N-[(2S)-1-[(2S,4R)-4-hydroxy-2-({[4-(4-methyl-1,3-thiazol-5-yl)phenyl]methyl}carbamoyl)pyrrolidin-1-yl]-3,3-dimethyl-1-oxobutan-2-yl]-N′-(2-{2-[2-({2-methyl-4-[5-(trifluoromethyl)pyridin-2-yl]-2H,4H-[1,2,3]triazolo[4,5-b]indol-7-yl}formamido)ethoxy]ethoxy}ethyl)-heptanediamide], for which the DC50 on TEAD1 in SK-HEP1 cells (setting [2]) and at TEAD1 in NCI-H226 cells (setting [4]) was 100 to 1000 nM throughout.
As for `Cn1cc2c3cc(C(=O)NCCOCCOCCNC(=O)COc4ccc5c(c4)C(=O)N(C4CCC(=O)NC4=O)C5=O)ccc3n(-c3ccc(C(F)(F)F)cc3)c2n1` (stereo not drawn) [Compound 7, 2-{[2-(2,6-dioxopiperidin-3-yl)-1,3-dioxo-2,3-dihydro-1H-isoindol-5-yl]oxy}-N-(2-{2-[2-({2-methyl-8-[4-(trifluoromethyl)phenyl]-2H,8H-pyrazolo[3,4-b]indol-5-yl}formamido)ethoxy]ethoxy}ethyl)acetamide], the DC50 at TEAD1 in SK-HEP1 cells (setting [1]) was 2400 nM; at TEAD1 in SK-HEP1 cells (setting [2]), 1000 to 3000 nM; at TEAD1 in NCI-H226 cells (setting [3]), 20000 nM; on TEAD1 in NCI-H226 cells (setting [4]), 9000 to 30000 nM.
The matching figures for `Cn1cc2c3cc(C(=O)NCC#Cc4ccc(N5CCN(CCCC(=O)Nc6ccc7c(c6)CN(C6CCC(=O)NC6=O)C7=O)CC5)nc4)ccc3n(-c3ccc(C(F)(F)F)cc3)c2n1` (stereo not drawn) [Compound 19, N-(3-{6-[4-(3-{[2-(2,6-dioxopiperidin-3-yl)-1-oxo-2,3-dihydro-1H-isoindol-5-yl]carbamoyl}propyl)piperazin-1-yl]pyridin-3-yl}prop-2-yn-1-yl)-2-methyl-8-[4-(trifluoromethyl)phenyl]-2H,8H-pyrazolo[3,4-b]indole-5-carboxamide]: 40 nM, under 100 nM, 70 nM and under 100 nM.
For the compound `CN(CCOCCOCCOCCOCCNC(=O)c1ccc2c(c1)c1cn(C)nc1n2-c1ccc(C(F)(F)F)cc1)c1cccc2c1C(=O)N(C1CCC(=O)NC1=O)C2=O` (stereo not drawn) [Compound 80, N-{2-[2-(2,6-dioxopiperidin-3-yl)-1,3-dioxo-2,3-dihydro-1H-isoindol-4-yl]-5,8,11,14-tetraoxa-2-azahexadecan-16-yl}-2-methyl-8-[4-(trifluoromethyl)phenyl]-2H,8H-pyrazolo[3,4-b]indole-5-carboxamide], the DC50 on TEAD1 in SK-HEP1 cells (setting [2]) is under 100 nM; on TEAD1 in NCI-H226 cells (setting [4]), 100 to 1000 nM.
In the case of `Cn1cc2c3cc(C(=O)NCCOCCOCCOCCOCCNC(=O)[C@]45CCC(C)(C)C[C@H]4[C@H]4C(=O)C=C6[C@@]7(C)C=C(C#N)C(=O)C(C)(C)[C@@H]7CC[C@@]6(C)[C@]4(C)CC5)ccc3n(-c3ccc(C(F)(F)F)cc3)c2n1` [Compound 33, (4aS,6aR,6bS,8aR,12aS, 14aR, 14bS)-11-cyano-2,2,6a,6b,9,9,12a-heptamethyl-N-[14-({2-methyl-8-[4-(trifluoromethyl)phenyl]-2H,8H-pyrazolo[3,4-b]indol-5-yl}formamido)-3,6,9,12-tetraoxatetradecan-1-yl]-10,14-dioxo-1,2,3,4,4a,5,6,6a,6b,7,8,8a,9,10,12a,14,14a,14b-octadecahydropicene-4a-carboxamide], the DC50 at TEAD1 in SK-HEP1 cells (setting [1]) is 650 nM; at TEAD1 in SK-HEP1 cells (setting [2]), 100 to 1000 nM; at TEAD1 in NCI-H226 cells (setting [3]), 600 nM; on TEAD1 in NCI-H226 cells (setting [4]), 100 to 1000 nM.
As for `Cn1cc2c3cc(C(=O)NCCOCCOCCOCCNc4cccc5c4C(=O)N(C4CCC(=O)NC4=O)C5=O)ccc3n(-c3ccc(C(F)(F)F)cc3)c2n1` (stereo not drawn) [Compound 50, N-(2-{2-[2-(2-{[2-(2,6-dioxopiperidin-3-yl)-1,3-dioxo-2,3-dihydro-1H-iso-indol-4-yl]amino}ethoxy)ethoxy]ethoxy}ethyl)-2-methyl-8-[4-(trifluoro-methyl)phenyl]-2H,8H-pyrazolo[3,4-b]indole-5-carboxamide], the figures for the DC50 at TEAD1 in SK-HEP1 cells (setting [2]) and at TEAD1 in NCI-H226 cells (setting [4]) were 9000 to 30000 nM and under 100 nM, respectively.
In the same order, the values of `Cc1ncsc1-c1ccc(CNC(=O)[C@@H]2C[C@@H](O)CN2C(=O)[C@@H](NC(=O)CCCOCCOCCOCCOCCNC(=O)c2ccc3c(c2)c2cn(C)nc2n3-c2ccc(C(F)(F)F)cc2)C(C)(C)C)cc1` [Compound 57, [(2S)-3,3-dimethyl-2-[1-({2-methyl-8-[4-(trifluoromethyl)phenyl]-2H,8H-pyrazolo[3,4-b]indol-5-yl}formamido)-3,6,9,12-tetraoxahexadecan-16-amido]butanoyl]-4-hydroxy-N-{[4-(4-methyl-1,3-thiazol-5-yl)phenyl]-methyl}pyrrolidine-2-carboxamide] are 1000 to 3000 nM and 1000 to 3000 nM.
In the same order, the values of `Cn1cc2c3cc(C(=O)NCCOCCOCCOCCOCCOCCNc4cccc5c4C(=O)N(C4CCC(=O)NC4=O)C5=O)ccc3n(-c3ccc(C(F)(F)F)cc3)c2n1` (stereo not drawn) [Compound 47, N-(17-{[2-(2,6-dioxopiperidin-3-yl)-1,3-dioxo-2,3-dihydro-1H-isoindol-4-yl]amino}-3,6,9,12,15-pentaoxaheptadecan-1-yl)-2-methyl-8-[4-(trifluoro-methyl)phenyl]-2H,8H-pyrazolo[3,4-b]indole-5-carboxamide] are under 100 nM and under 100 nM.
